Laboratory results reported in PMC11696576, “Next generation thiazolyl ketone inhibitors of cytosolic phospholipase A2 α for targeted cancer therapy” (Nature Communications, 2025).
Where “and” joins values, the source holds several entries; their conditions need not be identical. Equal entries are not always repeated. Where two headings read alike, the source gives them in different places.

Experiments:
[1] = viability of PBMCs (CTG and propidium iodide exclusion); format: cell-based, human; conditions: human, read-out: PBMC viability relative to 0 µM = 100 (Figure S8a)
Description: (§1) Propidium iodide exclusion was used to assess cell death by flow cytometry. After treatment, the cells were washed once with PBS and stained with 1.4 μg/mL propidium iodide (PI) for 5 min before quantification of PI negative and positive cells using a CytoFLEX flow cytometer (California, United States). An example of the gating strategy to assess PI staining can be found in Fig. S8c. […]
(§2) cells. a. CTG assays were used to assess viability of PBMCs isolated from human blood after treatment with vehicle control (DMSO) or AVX420 at the indicated doses for either (i) 24 hours or (ii) 72 hours. Data are the mean ±stdev of 4 or 5 biological replicates respectively. b. The propidium iodide exclusion assay was used to assess vi-ability of ungated PBMCs treated with AVX420 at the indicated doses for 24 hours .
(§3) Data are the mean ±stdev from 8 biological replicates (1-16 µM) and 5 biological rep- […]
(§4) iodide exclusion in CD3+ lymphocytes (T-cells). Cells appearing in the bottom right quadrant are PI-negative (live) T-cells while cells in the top right quadrant are PI-posi- […]
(§5) (1 picture or pasted object on this page, not shown here)

PBMCs = test: as above; format: cell-based, human; conditions: for PI Negative (Figure S8b) / PI Positive (Figure S8b): replicates; for PI Negative (Figure S8b) / PI Positive (Figure S8b) / PBMC viability relative to 0 µM = 100 (Figure S8a): listed as AVX420
Description: as §1, §2, §3, §4, §5

CCRF-CEM cells = test: cell viability, CTG assay, CCRF-CEM; conditions: for cell viability (0 µM = 100): listed as AVX420; for cell viability (Control = 100): VEH
Description: Data are the mean ± stdev of 3 biological replicates. c Viability of healthy T-cells measured by propidium iodide (PI) exclusion. Data are the mean ± stdev of 8 biological replicates for 1–16 µM AVX420, 5 for 32 µM AVX420 and 2 for 0.5 µM Staurosporine (Stau). d Cell viability measured by CTG assay in cells preincubated with 2.5 mM glutathione (GSH) or 2.5 mM N-acetyl cysteine (NAC) for 30 min before addition of 0.5 or 1 µM AVX420, 0.06 µM RSL-3, or 0.06 µM ML-210 for 24 h. Data are the mean ± stdev of 3 biological replicates. P-values were determined by one-way ANOVA with Dunnett’s correction for multiple testing and **** indicates P < 0.0001. e Cell viability measured by CTG assay. CCRF-CEM or Jurkat cells were co-treated with 0.5 µM AVX420 and either arachidonic acid (AA) at concentrations ranging from 1 to 100 µM or a mixture of 9 eicosanoids: 6-keto prostaglandin F1α, Thromboxane B2, prostaglandin F2α, prostaglandin E2, prostaglandin D2, 12(S)-HHTrE, 15(S)-HETE,12(S)-HETE, 5(S)-HETE at a final concentration of 2 ng/mL each (EIC-mix) for 24 h. Data are the mean ± stdev of 3 biological replicates. P-values were determined by two-way ANOVA with Sidak’s correction for multiple comparisons. f Proportion of intracellular ROS-positive cells measured by ROS-red staining and flow cytometry. Cells were treated with indicated concentrations of AVX420 (µM), 1 mM H2O2, 1 µM RSL-3, or 1 µM doxorubicin (dox) for 4 h. Data are the mean ± stdev of 3 biological replicates. g Intracellular ROS measurements in CCRF-CEM cells treated with AVX420 (0.5 µM), AVX002 (8 µM), or AACOCF3 (8 µM) for 4 h.
All cell lines were confirmed to be free of mycoplasma contamination. The cell lines were not authenticated. MV-4-11 were cultured in Iscove’s Modified Dulbecco’s Medium (Sigma, I3390). CCRF-CEM, Jurkat E6.1, and HL-60 cells were cultured in RPMI 1640 Medium RPMI-1640 medium (Sigma, R5886).

## CCCCCCCOc1ccc(OCC(=O)c2nc(C(=O)OC)cs2)cc1 [GK420]
[1]; PBMC 72H, 1 µM, rep1-5
  viability at 72 h, 1 µM: 103%
[1]; PMBC 24H, 0.5 µM, rep1-4
  viability at 24 h, 0.5 µM: 99%
[1]; PMBC 24H, 1 µM, rep1-4
  viability at 24 h, 1 µM: 102%
[1]; PMBC 24H, 2 µM, rep1-4
  viability at 24 h, 2 µM: 98%
[1]; PMBC 24H, 4 µM, rep1-4
  viability at 24 h, 4 µM: 101%
[1]; PMBC 24H, 8 µM, rep1-4
  viability at 24 h, 8 µM: 102%
[1]; PMBC 24H, 16 µM, rep1-4
  viability at 24 h, 16 µM: 102%
[1]; PMBC 24H, 32 µM, rep1-4
  viability at 24 h, 32 µM: 101%
PBMCs; 0.5 µM
  PI Negative (Figure S8b): 87 (3×) and 88 and 86 (2×) and 81 and 79
  PI Positive (Figure S8b): 12 and 14 (2×) and 13 (3×) and 19 and 21
PBMCs; 1 µM
  PI Negative (Figure S8b): 86 (3×) and 88 and 87 (2×) and 81 and 79
  PI Positive (Figure S8b): 12 and 14 (3×) and 13 (2×) and 19 and 21
PBMCs; 2 µM
  PI Negative (Figure S8b): 86 (3×) and 88 and 85 and 81 and 79 and 87
  PI Positive (Figure S8b): 12 and 15 and 14 (3×) and 19 and 21 and 13
PBMCs; 4 µM
  PI Negative (Figure S8b): 87 (2×) and 88 and 85 and 86 and 80 and 79 and 84
  PI Positive (Figure S8b): 12 and 15 and 14 and 20 and 21 and 13 (2×) and 16
PBMCs; 8 µM
  PI Negative (Figure S8b): 86 and 88 and 84 (2×) and 80 and 77 and 85 and 83
  PI Positive (Figure S8b): 12 and 16 (2×) and 20 and 23 and 15 and 17 and 14
PBMCs; 16 µM
  PI Negative (Figure S8b): 86 and 88 and 84 (3×) and 80 and 74 and 81
  PI Positive (Figure S8b): 12 and 16 (3×) and 20 and 26 and 19 and 14
PBMCs; 32 µM
  PI Negative (Figure S8b): 82 and 84 and 79 and 81 and 80
  PI Positive (Figure S8b): 16 and 21 and 19 and 20 and 18
PBMCs; PBMC 72H, 0.5 µM, rep1-5
  PBMC viability relative to 0 µM = 100 (Figure S8a): 100 and 93 (2×) and 120
PBMCs; PBMC 72H, 1 µM, rep1-5
  PBMC viability relative to 0 µM = 100 (Figure S8a): 91 and 93 and 110 and 97
PBMCs; PBMC 72H, 4 µM, rep1-5
  PBMC viability relative to 0 µM = 100 (Figure S8a): 111 and 89 and 93 and 118 and 88
PBMCs; PBMC 72H, 8 µM, rep1-5
  PBMC viability relative to 0 µM = 100 (Figure S8a): 113 and 75 and 87 and 109 and 93
PBMCs; PBMC 72H, 16 µM, rep1-5
  PBMC viability relative to 0 µM = 100 (Figure S8a): 109 and 80 and 83 and 90
PBMCs; PBMC 72H, 32 µM, rep1-5
  PBMC viability relative to 0 µM = 100 (Figure S8a): 104 and 88 and 82 and 76 and 96
PBMCs; PMBC 24H, 0.5 µM, rep1-4
  PBMC viability relative to 0 µM = 100 (Figure S8a): 100 and 97 (2×)
PBMCs; PMBC 24H, 1 µM, rep1-4
  PBMC viability relative to 0 µM = 100 (Figure S8a): 94 and 95
PBMCs; PMBC 24H, 2 µM, rep1-4
  PBMC viability relative to 0 µM = 100 (Figure S8a): 97
PBMCs; PMBC 24H, 4 µM, rep1-4
  PBMC viability relative to 0 µM = 100 (Figure S8a): 97 and 96
PBMCs; PMBC 24H, 8 µM, rep1-4
  PBMC viability relative to 0 µM = 100 (Figure S8a): 105
PBMCs; PMBC 24H, 32 µM, rep1-4
  PBMC viability relative to 0 µM = 100 (Figure S8a): 104
PBMCs; up to a maximum dose tested of 32 µM
  effect on healthy PBMCs: no effect
CCRF-CEM cells; 0.007 µM, 24H
  cell viability (0 µM = 100): 100
CCRF-CEM cells; 0.015 µM, 24H
  cell viability (0 µM = 100): 90
CCRF-CEM cells; 0.015 µM, 72H
  cell viability (0 µM = 100): 81
CCRF-CEM cells; 0.031 µM, 24H
  cell viability (0 µM = 100): 99
CCRF-CEM cells; 0.062 µM, 24H
  cell viability (0 µM = 100): 103
CCRF-CEM cells; 0.062 µM, 48H
  cell viability (0 µM = 100): 84
CCRF-CEM cells; 0.062 µM, 72H
  cell viability (0 µM = 100): 70
CCRF-CEM cells; 0.125 µM, 72H
  cell viability (0 µM = 100): 45 and 46
CCRF-CEM cells; 0.25 µM, 24H
  cell viability (0 µM = 100): 69 and 65
CCRF-CEM cells; 0.25 µM, 48H
  cell viability (0 µM = 100): 43
CCRF-CEM cells; 0.25 µM, 72H
  cell viability (0 µM = 100): 16 and 24
CCRF-CEM cells; 0.5 µM, 24H
  cell viability (0 µM = 100): 42 and 39
CCRF-CEM cells; 0.5 µM, 48H
  cell viability (0 µM = 100): 19
CCRF-CEM cells; 0.5 µM, 72H
  cell viability (0 µM = 100): 5.44 and 10
CCRF-CEM cells; 0.5 µM, listed as AVX420, 0.5 µM
  cell viability (Control = 100): 56 and 50
CCRF-CEM cells; 1 µM, 24H
  cell viability (0 µM = 100): 23
CCRF-CEM cells; 1 µM, 48H
  cell viability (0 µM = 100): 10
CCRF-CEM cells; 1 µM, 72H
  cell viability (0 µM = 100): 3 and 4.53
CCRF-CEM cells; 1 µM, listed as AVX420, 1 µM
  cell viability (Control = 100): 38
CCRF-CEM cells; 2 µM, 24H
  cell viability (0 µM = 100): 11
CCRF-CEM cells; 2 µM, 48H
  cell viability (0 µM = 100): 3 and 2
CCRF-CEM cells; 2 µM, 72H
  cell viability (0 µM = 100): 1.13
CCRF-CEM cells; 4 µM, 72H
  cell viability (0 µM = 100): 0.147
CCRF-CEM cells; CTG
  effect on viability: strong dose-dependent effect
CCRF-CEM cells; Homo sapiens, 24 h, read-out: cell viability (0 µM = 100), CCRF-CEM, 0.007 µM, 24H
  viability at 0.007 µM: 98%
CCRF-CEM cells; Homo sapiens, 24 h, read-out: cell viability (0 µM = 100), CCRF-CEM, 0.015 µM, 24H
  viability at 0.015 µM: 98%
CCRF-CEM cells; Homo sapiens, 24 h, read-out: cell viability (0 µM = 100), CCRF-CEM, 0.031 µM, 24H
  viability at 0.031 µM: 98%
CCRF-CEM cells; Homo sapiens, 24 h, read-out: cell viability (0 µM = 100), CCRF-CEM, 0.062 µM, 24H
  viability at 0.062 µM: 98%
CCRF-CEM cells; Homo sapiens, 24 h, read-out: cell viability (0 µM = 100), CCRF-CEM, 0.25 µM, 24H
  viability at 0.25 µM: 68%
CCRF-CEM cells; Homo sapiens, 24 h, read-out: cell viability (0 µM = 100), CCRF-CEM, 0.5 µM, 24H
  viability at 0.5 µM: 49%
CCRF-CEM cells; Homo sapiens, 24 h, read-out: cell viability (0 µM = 100), CCRF-CEM, 1 µM, 24H
  viability at 1 µM: 27%
CCRF-CEM cells; Homo sapiens, 24 h, read-out: cell viability (0 µM = 100), CCRF-CEM, 2 µM, 24H
  viability at 2 µM: 14%
CCRF-CEM cells; Homo sapiens, 48 h, read-out: cell viability (0 µM = 100), CCRF-CEM, 0.007 µM, 48H
  viability at 0.007 µM: 94%
CCRF-CEM cells; Homo sapiens, 48 h, read-out: cell viability (0 µM = 100), CCRF-CEM, 0.015 µM, 48H
  viability at 0.015 µM: 95%
